Measurements reported in article PMC5307958 (Scientific Reports, 2017).
“Also recorded” adds a separate entry of the source. Where a SMILES comes first, the peptide text is derived from it. Bridges are numbered along the chain shown (N, C = ends).

Experiments:
GABAA = test: Competition radioligand binding (NIMH PDSP); settings: radioligand Muscimol, measured 4 times
Method: (§1) LS3 was screened against a comprehensive panel of CNS-based proteins. Detailed protocols can be found within the US National Institute of Mental Health Psychoactive Drug Screening Program (NIMH PDSP) Assay Protocol Book (version II), by B. L. Roth, March 2013 (available at: http://pdsp.med.unc.edu/PDSP%20Protocols%20II%202013-03-28.pdf). […] Radioactivity in the presence of the LS3 (sample) was calculated with the following equation and expressed as a percent inhibition: % inhibition = (sample CPM – non-specific CPM)/Total CPM – non-specific CPM) × 100. Total binding was measured with no competing ligand. Non-specific binding was measured in the presence of reference compound. The % inhibition by LS3 was measured 4 times for each receptor.

Sigma 2 = test: Competition radioligand binding (NIMH PDSP); settings: radioligand DTG, measured 4 times
Method: as §1

NET = test: Competition radioligand binding (NIMH PDSP); settings: radioligand Nisoxetine, measured 4 times
Method: as §1

5HT 2B = test: Competition radioligand binding (NIMH PDSP); settings: radioligand LSD, measured 4 times
Method: as §1

Opioid MOR = test: Competition radioligand binding (NIMH PDSP); settings: radioligand DAMGO, measured 4 times
Method: as §1

Opioid DOR = test: Competition radioligand binding (NIMH PDSP); settings: radioligand DADLE, measured 4 times
Method: as §1

hERG = test: Competition radioligand binding (NIMH PDSP); settings: human, probe Dofetilide (radioligand), measured 4 times, read-out: % inhibition by 10 µM LS3
Method: as §1

Adrenergic Alpha1A = test: Competition radioligand binding (NIMH PDSP); settings: radioligand Prazosin, measured 4 times
Method: as §1

5HT 1A = test: Competition radioligand binding (NIMH PDSP); settings: radioligand 8-OH-DPAT, measured 4 times
Method: as §1

Dopamine D2 = test: Competition radioligand binding (NIMH PDSP); settings: radioligand N-methylspiperone, measured 4 times
Method: as §1

BZP rat brain site = test: Competition radioligand binding (NIMH PDSP); settings: radioligand Flunitrazepam, measured 4 times
Method: as §1

Adrenergic Alpha2A = test: Competition radioligand binding (NIMH PDSP); settings: radioligand Clonidine, measured 4 times
Method: as §1

5HT 1B = test: Competition radioligand binding (NIMH PDSP); settings: radioligand GR127543, measured 4 times
Method: as §1

[1] = tested on: auditory nerve and generators caudal to the IC; test: Auditory brainstem responses (ABR); assay type: in vivo, mouse
Method: The temperature was maintained near 25 °C.
ABR recordings were acquired after the mice were anesthetized with ketamine (120 mg/kg) and xylazine (10 mg/kg) I.P., and respiration was monitored throughout to determine when additional supplemental doses were needed. Body temperature was kept constant at 37 °C using a feedback controlled heating pad (Physitemp TCAT2-LV Controller, Clifton, NJ). Stimuli and recordings were generated digitally and controlled using a TDT RZ6 Multi-I/O Processor and their BioSig/SigGen software. Acoustic signals were played through a multi-field (MF1) magnetic speaker (TDT, Alachua, FL) with a total harmonic distortion < = 1% from 1 kHz to 50 kHz, centered 0° azimuth in regards to the animal at a distance of 10 cm from the ear pinna. Tone bursts were presented at frequencies of 6, 12, 16, 20, 24, and 36 kHz (3 ms duration, 1 ms rise/fall time, alternating polarity) at a rate of 29 per second, attenuated in 5 dB steps from 80 dB SPL to 15 dB below threshold or 5 dB SPL, whichever was lower. Threshold was determined by visual inspection as the lowest intensity level which produced a defined wave in both replicates. All signals were calibrated using a Larsen Davis preamplifier, model 2221, with a 1/4″ microphone and a Larson Davis CAL200 Precision Acoustic Calibrator (PCB Piezotronics, Inc., Depew, NY). ABR recordings were acquired using a TDT RA4LI low-impedance digital headstage and RA4PA Medusa preamp with the active (noninverting) electrode inserted at the vertex, the reference (inverting) electrode below the left ear, and the ground electrode below the right ear. The responses were amplified (20×), filtered (300 Hz–3 kHz), and averaged using BioSig software and the System III hardware (TDT) data-acquisition system. A total of 256 tone burst signal and 150 GIN signal recordings were replicated for each acquisition, and muscle artifacts exceeding 7 μV were rejected from the averaged response. All recordings took place in a soundproof booth lined with echo-attenuating acoustic foam. ABR waveforms were analyzed using a custom MatLab program that automatically determined peak latencies and amplitudes in combination with secondary verification by an experimenter blind to the treatment group.

mAcetylcholine M1 = test: Competition radioligand binding (NIMH PDSP); settings: radioligand QNB, measured 4 times
33 mammalian CNS targets = test: NIMH-PDSP competition binding panel, all targets
Method: as §1

## CC(C)C[C@@H]1NC(=O)CNC(=O)[C@H](CCCNC(=N)N)NC(=O)[C@H](CCCNC(=N)N)NC(=O)[C@@H](N)CSSC[C@@H](C(=O)O)NC(=O)[C@H](C(C)C)NC(=O)[C@H](CCC(N)=O)NC(=O)[C@H](C(C)C)NC1=O [LS3] (H-CRRGLVQVC-OH; disulfide 1-9; N-terminus and C-terminus assumed)
GABAA
  % inhibition by 10 µM LS3: 19.3%
Sigma 2
  % inhibition by 10 µM LS3: 24.3%
NET
  % inhibition by 10 µM LS3: 6.7%
5HT 2B
  % inhibition by 10 µM LS3: 3.2%
Opioid MOR
  % inhibition by 10 µM LS3: 2.2%
Opioid DOR
  % inhibition by 10 µM LS3: 1.9%
hERG
  inhibition at 10 µM: 21.2%
Adrenergic Alpha1A
  % inhibition by 10 µM LS3: 11.3%
5HT 1A
  % inhibition by 10 µM LS3: 11.4%
Dopamine D2
  % inhibition by 10 µM LS3: 20.9%
BZP rat brain site
  % inhibition by 10 µM LS3: 5.1%
Adrenergic Alpha2A
  % inhibition by 10 µM LS3: 3.2%
5HT 1B
  % inhibition by 10 µM LS3: 2.8%
[1]; 4 hours post I.P. injection vs. baseline, tone bursts
  mean ABR thresholds: No significant effect
[1]; inferred from unaltered ABRs after systemic administration
  activity at cochlear BK channels: not active at cochlear BK channels
[1]; systemic (I.P.) administration
  effect on ABRs / peripheral auditory processing: without altering peripheral auditory processing; also recorded: does not alter ABRs
[1]; systemic (I.P.) injection, 4 hrs vs. baseline, auditory nerve
  ABR peak 1 (P1) amplitude by intensity functions: unaffected; also recorded: Neither BK channel modulator reduced auditory nerve (P1)
[1]; systemic (I.P.) injection, 4 hrs vs. baseline, generators caudal to the IC (brainstem)
  ABR peak 4 (P4) amplitude by intensity functions: unaffected; also recorded: Neither BK channel modulator reduced auditory nerve (P1) or brainstem (P4) amplitudes
mAcetylcholine M1
  % inhibition by 10 µM LS3: 12.6%
33 mammalian CNS targets; 10 microM LS3
  interaction with known ligand binding sites on 33 mammalian CNS targets: does not have high affinity interactions
33 mammalian CNS targets; 10 microM LS3, all 33 targets, printed 'substantially less than 50%', each measured 4 times
  inhibition of radioligand binding: less than 50%
33 mammalian CNS targets; inferred from less than 50% inhibition at 10 microM LS3, array of CNS targets
  Ki: > 10 µM
